Measurements taken from patent US6555533B2, “Use of certain substituted caprolactams in treating tumors” (Novartis AG, priority 1998, dated 2003).
Where two headings read alike, the source gives them in different places. Marks after values point to notes of the source that are not given here.

Legend:
[1] = tested on: MDA-MB-435 tumor xenografts; assay: MDA-MB-435 breast carcinoma xenograft model; format: in vivo, athymic (nu/nu) mice
Method: Positive controls are carried out with doxorubicin administered 3 times per week i.v.
The following results were obtained for compounds of Ex.1-Ex.12 tested against MDA-MB-435 tumor xenografts 3×/week for 3 weeks: […]

[2] = tested on: PC-3 prostate carcinoma; assay: Anchorage Dependent Growth Monolayer Assay (ADGMA), PC-3; format: cell-based, human; settings: Homo sapiens, 72 h; 3-day exposure, MTS readout; read-out: IC50 (average±S.D.) PC-3
Method: (§1) As indicated above, all of the compounds of formula I, and their corresponding pharmaceutically acceptable acid addition salts, are anti-tumor agents and are, therefore, useful in inhibiting the growth of various lymphomas, sarcomas, carcinomas, myelomas, and leukemia cell lines.
(§2) The ADGMA compares the number of viable cells following a 3-day exposure to a test compound relative to a number of cells present at the time the test compound was added. […] The absorbance at 490 nm (A490) of the formazan derivative is proportional to the number of viable cells. The IC50 for a test compound is the concentration of compound required to reduce the final cell number to 50% of the final control cell number. If cell proliferation is inhibited, the assay further defines compounds as cytostatic (cell number after 3-day compound incubation >cell number at time of compound addition) or cytotoxic (cell number after 3-day compound incubation <cell number at time of compound addition).
(§3) A549, HCT-116 and PC-3 cells were maintained in RPMI 1640 containing 5% FBS, […], 1 nM β-estradiol, 1 nM testosterone, 100 units/mL penicillin and 100 ug/mL streptomycin.
(§4) Cell lines are trypsinized and counted using a Coulter counter to determine plating densities. Cells are then plated in their respective maintenance media (100 μL/well) in 96 well plates at the following densities: MDA-MB-435, 3,000 cells/well; A549 and HCT-116, 700 cells/well; are PC-3, 2500 cells/well. The number of cells plates as determined in preliminary experiments, results in cell densities of 75-90% of confluency by 4 days after plating. Initial cell densities, assayed one day after plating, are roughly 0.15-0.20 absorbance units greater than the media blank. Ninety-six well plates are seeded on day 0 and the test compounds are added on day 1. A control plate is created for each cell line that receives media only in row A and cells in row B. One day following plating, test compounds are added (in a final volume of 100 μL) to the test plates. Control plates receive 10 μL MTS mixture (prepared fresh on day of addition to cell plates at a ratio of 10 μL of a 0.92 mg/mL solution of PMS to a 190 μL of a 2 mg/mL solution of MTS) and 100 μL media. A490 of control plates is read 4 h after MTS addition to determine initial cell density values for each cell line. Three days after addition of test compound, 10 μL/well of MTS mixture is added to the test plates and A490 is read 4 h later. A490 values for wells containing cells are corrected for media absorbance, then normalized to initial density readings to determine percent net growth. IC50 values are determined from graphs of percent net growth as a function of compound concentration. Percent net growth is calculated as (Cell+Drug A490−Initial A490/Cell+Drug Vehicle A490−Initial A490).

[3] = tested on: HCT-116 tumor xenografts; assay: HCT-116 colon carcinoma xenograft model; format: in vivo, athymic (nu/nu) mice
Method: Positive controls are carried out with 5-fluorouracil administered 1 time per week i.v.

[4] = tested on: MDA-MB-435 breast carcinoma; assay: Anchorage Dependent Growth Monolayer Assay (ADGMA), MDA-MB-435; format: cell-based, human; settings: 3-day exposure, MTS readout, read-out: IC50 (average±S.D.) MDA-MB-435
Method: as §1, §2
The MDA-MB-435 breast carcinoma line was obtained from the American Type Culture Collection (ATCC) and used between passages 4-20 following thawing. MDA-MB-435 breast carcinoma was maintained and plated in DME/F12 medium containing 10% fetal bovine serum, 15 mM HEPES (pH=7.4), 100 units/mL penicillin, and 100 μg/mL streptomycin.
as §4

[5] = tested on: A549 non-small cell lung carcinoma; assay: Anchorage Dependent Growth Monolayer Assay (ADGMA), A549; format: cell-based, human; settings: Homo sapiens, A549, 72 h; 3-day exposure, MTS readout; read-out: IC50 (average±S.D.) A549
Method: as §1, §2, §3, §4

[6] = tested on: PC-3 tumor xenografts; assay: PC-3 prostate carcinoma xenograft model; format: in vivo, athymic (nu/nu) mice
[7] = tested on: A549 tumor xenografts
From the text: Utilizing this model, one can measure the ability of test compounds to inhibit the growth of human tumor xenografts growing subcutaneously (s.c.) in athymic nude mice. The histologic tumor types employed were MDA-MB-435 breast, A549 non-small cell lung, HCT-116 colon and PC-3 prostate carcinomas.
A549 non-small cell lung carcinoma xenograft model: Briefly, 10 million cells were implanted s.c. into the right flank of athymic (nu/nu) mice, and were allowed to grow until a mass of approximately 120 mm^3 was established. The test compounds are administered three times per week intravenously (i.v.) for three weeks in 5% dextrose, 10%DMSO in water. The test compounds are administered in dose-response fashion in order to evaluate and document the full potential range of activity (efficacy and toxicity) for a given compound. Positive controls are carried out with mitomycin C administered 3 times per week intraperitioneally (i.p.).
Toxicity was monitored by recording average group body weights twice weekly, and by daily observation of general health. Efficacy was monitored by taking measurements of tumor length, width, and depth weekly using digital calipers coupled to automated data collectors. Mean tumor volume (MTV) at initiation of therapy was subtracted from final MTV in order to express the actual tumor growth during treatment (ΔMTV). Anti-tumor activity was expressed as %T/C (ΔMTV of treated group÷ΔMTV of control group×100). Regressions were calculated using the formula: (T/T0−1)×100%, where T is the tumor volume for the treatment group at the end of the experiment, and T0 is the tumor volume at the beginning of the experiment. Statistical significance was evaluated using a one-tailed Student's t-test (p<0.05).

[8] = tested on: HCT-116 colon carcinoma; assay: Anchorage Dependent Growth Monolayer Assay (ADGMA), HCT-116; format: cell-based, human; settings: Homo sapiens, HCT-116, 72 h; 3-day exposure, MTS readout; read-out: IC50 (average±S.D.) HCT-116
Method: as §1, §2, §3, §4

[9] = 10 μmol/kg i.v. 3×/week for 3 weeks
[10] = 33 μmol/kg i.v. 3×/week for 3 weeks
[11] = 100 μmol/kg i.v. 3×/week for 3 weeks
[12] = 2 mg/kg i.v. 3 times per week (positive control)

## CO[C@@H](C(=O)N[C@H]1CC[C@@H](OC(=O)C2CCCCC2)CNC1=O)[C@H](O)[C@@H](O)[C@H](O)/C=C/C(C)(C)C [Ex. 1, (2R, 3R, 4S, 5R, 6E)-3,4,5-Trihydroxy-2-methoxy-8,8-dimethyl-N-[(3S, 6R)-hexahydro-2-oxo-6-(cyclohexylcarbonyl)oxy-2H-azepin-3-yl]non-6-enamide]
[1]; [9]
  % T/C: 61* %
  Dead/Total: 0/8
[1]; [10]
  % T/C: 24* %
  Dead/Total: 0/8
[1]; [11]
  % regression: 29 regression* %
  Dead/Total: 0/8
  Δ MTV: −11 mm^3
[2]
  IC50: 39 ± 13 nM
[3]; [9]
  % T/C: 89%
  Dead/Total: 0/8
  Δ MTV: 360 mm^3
[3]; [10]
  % T/C: 35* %
  Dead/Total: 0/8
  Δ MTV: 142 mm^3
[3]; [11]
  % T/C: 10* %
  Dead/Total: 0/8
  Δ MTV: 42 mm^3
[4]; Homo sapiens, MDA-MB-435, 72 h
  IC50: 41 ± 26 nM
[5]
  IC50: 78 ± 38 nM
[6]; [9]
  % T/C: 87%
  Dead/Total: 0/7
  Δ MTV: 1931 mm^3
[6]; [10]
  % T/C: 32%
  Dead/Total: 0/8
  Δ MTV: 718 mm^3
[6]; [11]
  % T/C: 8* %
  Dead/Total: 1/8
  Δ MTV: 185 mm^3
[7]; [9]
  % T/C: 42%
  Dead/Total: 0/8
  Δ MTV: 32 mm^3
[7]; [10]
  % T/C: 38%
  Dead/Total: 0/8
  Δ MTV: 29 mm^3
[7]; [11]
  % T/C: 14* %
  Dead/Total: 1/8
  Δ MTV: 11 mm^3
[8]
  IC50: 41 ± 3 nM

## CO[C@@H](C(=O)N[C@H]1CC[C@@H](OC(=O)C2CCCCCC2)CNC1=O)[C@H](O)[C@@H](O)[C@H](O)/C=C/C(C)(C)C [Ex. 3, (2R, 3R, 4S, 5R, 6E)-3,4,5-Trihydroxy-2-methoxy-8,8-dimethyl-N-[(3S, 6R)-hexahydro-2-oxo-6(cylohpetylcarbonyl)oxy-2H-azepin-3-yl]non-6-enamide]
[1]; [9]
  % T/C: 39* %
  Dead/Total: 0/8
[1]; [10]
  % T/C: 28* %
  Dead/Total: 0/8
[4]
  IC50: 32 ± 14 nM

## CO[C@@H](C(=O)N[C@H]1CC[C@@H](OC(=O)CCc2cccnc2)CNC1=O)[C@H](O)[C@@H](O)[C@H](O)/C=C/C(C)(C)C [Ex. 5, (2R, 3R, 4S, 5R, 6E)-3,4,5-Trihydroxy-2-methoxy-8,8-dimethyl-N-[(3S, 6R)-hexahydro-2-oxo-6-(1-oxo-3-[3-pyridyl]propoxy)-2H-azepin-3-yl]non-6-enamide]
[1]; [9]
  % T/C: 92%
  Dead/Total: 0/8
[1]; [10]
  % T/C: 44* %
  Dead/Total: 0/8
[2]
  IC50: 348 ± 26 nM
[3]; [9]
  % T/C: 93%
  Dead/Total: 0/8
  Δ MTV: 376 mm^3
[3]; [10]
  % T/C: 67* %
  Dead/Total: 0/8
  Δ MTV: 270 mm^3
[3]; [11]
  % T/C: 28* %
  Dead/Total: 0/8
  Δ MTV: 111 mm^3
[5]
  IC50: 1040 ± 758 nM
[7]; [9]
  % T/C: 50%
  Dead/Total: 0/8
  Δ MTV: 38 mm^3
[7]; [10]
  % T/C: 46%
  Dead/Total: 0/8
  Δ MTV: 35 mm^3
[7]; [11]
  % T/C: 24* %
  Dead/Total: 0/8
  Δ MTV: 18 mm^3
[8]
  IC50: 464 ± 142 nM

## CO[C@@H](C(=O)N[C@H]1CC[C@@H](OC(=O)Cc2ccccc2)CNC1=O)[C@H](O)[C@@H](O)[C@H](O)/C=C/C(C)(C)C [Ex. 7, (2R, 3R, 4S, 5R, 6E)-3,4,5-Trihydroxy-2-methoxy-8,8-dimethyl-N-[(3S, 6R)-hexahydro-2-oxo-6-(1-oxo-2-phenylethoxy)-2H-azepin-3-yl]non-6-enamide.]
[1]; [9]
  % T/C: 72%
  Dead/Total: 0/8
[1]; [10]
  % T/C: 43* %
  Dead/Total: 0/8
[4]
  IC50: 262 ± 70 nM

## CCCCCCCCCCOc1ccc(C(=O)O[C@@H]2CC[C@H](NC(=O)[C@H](OC)[C@H](O)[C@@H](O)[C@H](O)/C=C/C(C)(C)C)C(=O)NC2)cc1 [Ex. 10, (2R, 3R, 4S, 5R, 6E)-3,4,5-Trihydroxy-2-methoxy-8,8-dimethyl-N-[(3S, 6R)-hexahydro-2-oxo-6-([4-n-decyloxyphenyl]carbonyl)oxy-2H-azepin-3-yl]non-6-enamide]
[1]; [9]
  % T/C: 64* %
  Dead/Total: 0/8
[1]; [10]
  % T/C: 2* %
  Dead/Total: 0/8
  Δ MTV: 4 mm^3
[4]; Homo sapiens, MDA-MB-435, 72 h
  IC50: 6 ± 4 nM

## CCCCCCCCCCc1ccc(C(=O)O[C@@H]2CC[C@H](NC(=O)[C@H](OC)[C@H](O)[C@@H](O)[C@H](O)/C=C/C(C)(C)C)C(=O)NC2)cc1 [Ex. 12, (2R, 3R, 4S, 5R, 6E)-3,4,5-Trihydroxy-2-methoxy-8,8-dimethyl-N-[(3S, 6R)-hexahydro-2-oxo-6-([4-n-decylphenyl]carbonyl)oxy-2H-azepin-3-yl]non-6-enamide]
[1]; [9]
  % T/C: 52%
  Dead/Total: 0/8
[1]; [10]
  % T/C: 7* %
  Dead/Total: 0/8
[4]; Homo sapiens, MDA-MB-435, 72 h
  IC50: 27 ± 37 nM

## CO[C@@H](C(=O)N[C@H]1CC[C@@H](OC(=O)Cc2c[nH]c3ccccc23)CNC1=O)[C@H](O)[C@@H](O)[C@H](O)/C=C/C(C)(C)C [Ex. 14, (2R, 3R, 4S, 5R, 6E)-3,4,5-Trihydroxy-2-methoxy-8,8-dimethyl-N-[(3S, 6R)-hexahydro-2-oxo-6-(1-oxo-3-[3-indolyl]ethoxy)-2H-azepin-3-yl]non-6-enamide]
[4]
  IC50: 1240 ± 196 nM

## COc1cccc2c1C(=O)c1c(O)c3c(c(O)c1C2=O)C[C@@](O)(C(=O)CO)C[C@@H]3O[C@H]1C[C@H](N)[C@H](O)[C@H](C)O1 [doxorubicin, reference compound]
[1]; [12]
  % T/C: 42* %
  Dead/Total: 0/8
[2]
  IC50: 327 ± 123 nM
[4]; Homo sapiens, MDA-MB-435, 72 h
  IC50: 399 ± 314 nM
[5]
  IC50: 504 ± 320 nM
[8]
  IC50: 39 ± 6 nM
